Test system: ND3 neuronal cell line
Experiment: Measurement of nerve growth stimulation effect (neurite bearing assay, neurite length assay, number of cells)
Assay type: cell-based
Conditions: relative cell number, DMSO well = 1; for viability at 1 µM / viability at 3 µM / viability at 5 µM / viability at 10 µM / viability at 30 µM / viability at 100 µM: 6 hours; for Number of cells: ND3 cells, 6 h
Description: To evaluate the nerve growth stimulation effect, neurite bearing assay (proportion of neurite-bearing cells) and neurite length assay (neurite length) were analyzed with reference to the method of Topalli et al. (Brain Research 1030 (2004), pp. 116-124).
An ND3 neuronal cell line (European Collection of Authenticated Cell Cultures) was seeded in a DMEM medium containing 10% fetal bovine serum (0.6×10^4 cells/1 mL) in a 24-well plate. 24 hours later, the medium of seeded cells was removed, and a solution in which the compound of the present disclosure that was sequentially diluted in dimethyl sulfoxide (DMSO) was adjusted in DIEM containing 0.1% bovine serum albumin so that the DMSO final concentration was 0.1%, was added to cells (evaluation performed in duplicate). After six hours from the addition, the proportion of neurite-bearing cells (the number of cells having a neurite longer than the diameter of the cell body/number of total cells), and the neurite length per cell were analyzed. The number of total cells, proportion of neurite-bearing cells, and neurite length per cell were analyzed using a MetaMorph Neurite Outgrowth Application Module (Molecular Devices Japan K.K.). The number of cells was defined as the relative cell number, taking the number of cells per well containing DMSO as 1. The relative activity of each compound when the maximum activity of 3-(15-methoxypentadecyl)-2,4,4-trimethylcyclohexa-2-en-1-one (compound 24) in each test was defined as 1 is shown (Table 9). For the compounds for which multiple tests were conducted, the average value was shown. Data with a number of cells of 0.5 or more was also used. Accordingly, if the number of cells was less than 0.5, the neurite length per cell and the proportion of neurite-bearing cells were defined as “-”.

Number of cells (1 μM compound)	Number of cells (3 μM compound)	Number of cells (5 μM compound)	Number of cells (10 μM compound)	Number of cells (30 μM compound)	Number of cells (100 μM compound)	SMILES	viability at 1 µM [%]	viability at 3 µM [%]	viability at 5 µM [%]	viability at 10 µM [%]	viability at 30 µM [%]	viability at 100 µM [%]
						CC1=C(CCCCCCCCCCCCCCO)C(C)(C)CCC1=O [Compound 3, 3-(14-hydroxytetradecyl)-2,4,4-trimethylcyclohex-2-en-1-one, reference compound]	98	105	110	108	11	13
						COC(C)(C)CCCCCCCCCCCCCCC1=C(C)C(O)CCC1(C)C (stereo not drawn) [Compound 47, 3-(15-methoxy-15-methylhexadecyl)-2,4,4-trimethylcyclohex-2-en-1-ol]	98	91	85	89	88	87
						CC1=C(CCCCCCCCCCCCCCCCO)C(C)(C)CCC1=O [Compound 5, 3-(16-hydroxyhexadecyl)-2,4,4-trimethylcyclohex-2-en-1-one, reference compound]	111	109	105	83	49	40
						CCOCCCCCCCCCCCCCC1=C(C)C(=O)CCC1(C)C [Compound 17, 3-(13-ethoxytridecyl)-2,4,4-trimethylcyclohex-2-en-1-one]	99	105	97	104	72	81
						CC1=C(CCCCCCCCCCCCCCC(=O)N(C)C)C(C)(C)CCC1=O [Compound 54, N,N-dimethyl-15-(2,6,6-trimethyl-3-oxocyclohex-1-en-1-yl)pentadecanamide]	93	112	87	90	4	5
						CC1=C(CCCCCCCCCCCCCO)C(C)(C)CCC1=O [Compound 2, 3-(13-hydroxytridecyl)-2,4,4-trimethylcyclohex-2-en-1-one, reference compound]	113	102	96	96	19	9
						CC1=C(CCCCCCCCCCCCCOC(C)C)C(C)(C)CCC1=O [Compound 18, 3-(13-isopropoxytridecyl)-2,4,4-trimethylcyclohex-2-en-1-one]	116	106	89	97	95	89
						COCCCCCCCCCCCCCCCC1=CC(=O)CCC12CC2 [Compound 43, 4-(15-methoxypentadecyl)spiro[2,5]oct-4-en-6-one]	97	97	85	86	96	101
						CC1=C(CCCCCCCCCCCCO)C(C)(C)CCC1=O [Compound 1, 3-(12-hydroxydodecyl)-2,4,4-trimethylcyclohex-2-en-1-one, reference compound]	103	105	99	103	99	9
						COCCCCCCCCCCCCCCCC1=C(C)C(=O)C=CC1(C)C [Compound 41, 3-(15-methoxypentadecyl)-2,4,4-trimethylcyclohex-2,5-dien-1-one]	110	112	82	93	109	114
						CC1=C(CCCCCCCCCCCCCCCOC(F)(F)F)C(C)(C)CCC1=O [Compound 49, 2,4,4-trimethyl-3-(15-(trifluoromethoxy)pentadecyl)-cyclohex-2-en-1-one]	96	100	101	101	103	108
0.87	0.94	0.87	0.79	0.39	0.07	CCCOCCCCCCCCCCCCC1=C(C)C(=O)CC1(C)C [Compound 71, 2,4,4-trimethyl-3-(12-propoxydodecyl)cyclopent-2-en-1-one]						
						CCCCOCCCCCCCCCCCCCC1=C(C)C(=O)CCC1(C)C [Compound 20, 3-(13-butoxytridecyl)-2,4,4-trimethylcyclohex-2-en-1-one]	110	110	96	90	113	117
0.91	0.86	0.84	0.82	0.61	0.09	CCOCCCCCCCCCCCCCCC1=C(C)C(=O)CC1(C)C [Compound 73, 2,4,4-trimethyl-3-(14-ethoxytetradecyl)cyclopent-2-en-1-one]						
0.92	0.89	0.83	0.78	0.91	0.91	COCCCCCCCCCCCCCCCC1=C(C(C)C)C(=O)CCC1(C)C [Compound 62, 2-isopropyl-3-(15-methoxypentadecyl)-4,4-dimethylcyclohex-2-en-1-one]						
						CC1=C(CCCCCCCCCCCCCCC#N)C(C)(C)CCC1=O [Compound 34, 15-(2,6,6-trimethyl-3-oxocyclohex-1-en-1-yl)pentadecanitrile]	106	101	96	98	98	97
						CC1=C(CCCCCCCCCCCCCCCOC(=O)c2ccccc2)C(C)(C)CCC1=O [Compound 53, 15-(2,6,6-trimethyl-3-oxocyclohex-1-en-1-yl)pentadecyl benzoate]	91	95	94	96	105	115
1.13	1.05	0.84	0.91	1.11	1.16	COCCCCCCCCCCCCCCCC1C(C)C(=O)CCC1(C)C (stereo not drawn) [Compound 63, 3-(15-methoxypentadecyl)-2,4,4-trimethylcyclohexan-1-one]						
						CC1=C(CCCCCCCCCCCCCCCOCc2ccccc2)C(C)(C)CCC1=O [Compound 52, 3-(15-(benzyloxy)pentadecyl)-2,4,4-trimethylcyclohex-2-en-1-one]	105	100	95	96	90	96
						COCCCCCCCCCCCCCCCC1=C(I)C(=O)CCC1(C)C [Compound 40, 2-iodo-3-(15-methoxypentadecyl)-4,4-dimethylcyclohex-2-en-1-one]	94	104	97	93	103	98
						CC1=C(CCCCCCCCCCCCCCCOC(C)C)C(C)(C)CCC1=O [Compound 26, 3-(15-isopropoxypentadecyl)-2,4,4-trimethylcyclohex-2-en-1-one]	102	100	93	90	98	101
						COCCCCCCCCCCCCCCCCC1=C(C)C(=O)CCC1(C)C [Compound 29, 3-(16-methoxyhexadecyl)-2,4,4-trimethylcyclohex-2-en-1-one]	107	98	96	92	97	93
						COCCCCCCCCCCCCCCCC1=C(COC)C(=O)CCC1(C)C [Compound 42, 2-(methoxymethyl)-3-(15-methoxypentadecyl)-4,4-dimethylcyclohex-2-en-1-one]	86	88	76	83	87	83

Source: patent US20230295068A1, “NOVEL CYCLOALKENONE COMPOUND OR SALT THEREOF” (TAIHO PHARMACEUTICAL CO., LTD., priority 2020, published 2023)
